# Results as given in patent US8344028B2, “Gamma-amino-butyric acid derivatives as GABAB receptor ligands” (XenoPort, Inc., priority 2009, dated 2013).
# Molecular target: GABAB receptor (Homo sapiens, UniProt Q9UBS5)
# Assay: GABAB receptor agonist or partial agonist activity by binding, electrophysiology, cAMP and/or Ca2+ assay methods (Examples 83-86)
# Type: cell-based
# Protocol: An assay using rat cerebral cortex membranes was used to determine the affinity of GABAB receptor ligands for the GABAB receptor.
# An assay buffer of 50 mM Tris pH 7.4 was prepared with 100 μM of isoguvacine, to block GABAA interactions. The assay buffer with isoguvacine was used for dilution of membranes, compounds, and radiolabel.
# Rat cerebral cortex membranes were diluted in assay buffer at 1 mg/mL and aliquoted into a 96-well plate at 900 μL/well. Buffer or test compound were added at 20-times final concentration in the buffer at 50 μL/well. Membranes and test compounds or buffer were incubated for 10 min. at room temperature. Radiolableled [S—(R*,R*)]-[3-[[1-(3,4-dichlorophenyl)ethyl]amino]-2-hydroxypropyl](cyclohexylmethyl) phosphinic acid (CGP54626) was then added at 50 μL/well in the buffer at 1-10 nM concentration in 50 μl. […] The assay mixture was filtered using Brandell filtration apparatus and GFB filters, washed twice with 3 mL of 4° C., 50 mM Tris pH 7.4, buffer without isoguvacine. The filters were then dried at room temperature and the dried filters punched out and placed in individual vials. Three (3) mL of scintillation fluid was added to each vial and the radiolabel counted on the scintillation counter. The inverse amount of radiolabel was indicative of binding of a test compound to the GABAB receptor.
# The following procedure was used to determine the level of intracellular cAMP. Recombinant HEK cells expressing the GABAB R1a2 receptor were used in the experiments. cAMP levels were measured using a cAMP XS^+ HitHunter™ Chemiluminescence Assay Kit (90-0075-02, GE Healthcare Biosciences Corp.). Cells were seeded overnight at 5,000 cells per well, in black, clear bottom 96-well plates. The following morning, cells were washed twice with 100 μL PBS per well. Forskolin was weighed out and dissolved in DMSO to a final concentration 100 mM. One-hundred (100) μM forskolin solutions were prepared in PBS with and without test compound at 1-times final concentration. Thirty (30) μL of the test solutions were added to the wells and incubated for 1 h at room temperature. The cAMP concentration was determined according to the protocol described in the cAMP assay kit, maintaining the plate at room temperature and in the dark. […] Each well was read for 6 seconds. The untransformed data was then analyzed.
# The following procedure was used to determine the GABAB receptor agonist activity of a compound as reflected by activation of Ca^2+ signaling. HEK TREx cells expressing GABABR1a2 under tetracycline induction control, and Gqi chimeric protein (expressed constitutively), allowing GABABR coupling through the Ca^2+ signaling pathway were used in the experiments.
# Cells were seeded in media containing tetracycline overnight at 100,000 cells/well, in black, clear-bottom, 96-well plates. The following morning, cells were washed twice with 100 μL HBSS buffer per well. Fluorescent Ca^2+ indicator dye was prepared using the materials and procedure described in the F362056 Fluo-4 NW Calcium Assay Kit (Invitrogen, Carlsbad, Calif.). Ten (10) mL of kit buffer and 100 μl of kit Probenecid were added to individual kit dye vials, and rolled back and forth several times to dissolve the dye. Cells were then loaded into the dye solution at 50 μL per well. The cells and dye were incubated for 30 min at 37° C., and then incubated for an additional 30 min at room temperature in the dark. Test compounds are dissolved in HBSS buffer at twice final concentration. Duplicate wells were used for each unique condition. Solution containing the test compound was added to the wells using a FLEXStation II (Molecular Devices, Sunnyvale, Calif.). Using the instrument in kinetic mode in which each well was read every 2 sec over a total collection time of 50 sec fluorescence was measured using an excitation wavelength 494 nm and a detection wavelength of 516 nm. A normalized fluorescence value for each well was calculated using the following procedure.
# Sequence of GABAB receptor (Q9UBS5 20-961): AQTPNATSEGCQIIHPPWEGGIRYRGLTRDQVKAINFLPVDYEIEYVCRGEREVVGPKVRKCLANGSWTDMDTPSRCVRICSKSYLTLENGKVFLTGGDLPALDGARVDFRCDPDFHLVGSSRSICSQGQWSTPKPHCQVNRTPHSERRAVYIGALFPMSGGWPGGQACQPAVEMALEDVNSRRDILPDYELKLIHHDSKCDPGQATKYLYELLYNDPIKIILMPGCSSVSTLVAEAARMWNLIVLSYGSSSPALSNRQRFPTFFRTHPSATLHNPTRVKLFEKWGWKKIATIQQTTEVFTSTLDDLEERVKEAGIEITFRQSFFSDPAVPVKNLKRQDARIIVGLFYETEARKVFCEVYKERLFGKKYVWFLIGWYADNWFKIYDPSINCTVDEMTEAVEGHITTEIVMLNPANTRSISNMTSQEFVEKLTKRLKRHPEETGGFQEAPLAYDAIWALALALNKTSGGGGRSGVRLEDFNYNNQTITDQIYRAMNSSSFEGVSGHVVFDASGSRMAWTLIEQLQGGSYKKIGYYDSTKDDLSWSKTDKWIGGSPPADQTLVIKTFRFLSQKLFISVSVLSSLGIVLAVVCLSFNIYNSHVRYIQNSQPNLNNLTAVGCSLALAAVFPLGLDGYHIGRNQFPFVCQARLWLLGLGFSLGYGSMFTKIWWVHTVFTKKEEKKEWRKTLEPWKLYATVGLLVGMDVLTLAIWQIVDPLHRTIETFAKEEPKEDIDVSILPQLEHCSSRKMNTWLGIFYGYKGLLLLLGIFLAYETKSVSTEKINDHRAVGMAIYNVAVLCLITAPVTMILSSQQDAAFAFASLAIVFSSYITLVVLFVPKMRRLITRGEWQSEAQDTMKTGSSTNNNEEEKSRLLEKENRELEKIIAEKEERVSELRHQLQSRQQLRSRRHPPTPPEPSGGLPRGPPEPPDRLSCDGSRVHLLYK
# Sequence of GABAB receptor (O75899 42-941 partner): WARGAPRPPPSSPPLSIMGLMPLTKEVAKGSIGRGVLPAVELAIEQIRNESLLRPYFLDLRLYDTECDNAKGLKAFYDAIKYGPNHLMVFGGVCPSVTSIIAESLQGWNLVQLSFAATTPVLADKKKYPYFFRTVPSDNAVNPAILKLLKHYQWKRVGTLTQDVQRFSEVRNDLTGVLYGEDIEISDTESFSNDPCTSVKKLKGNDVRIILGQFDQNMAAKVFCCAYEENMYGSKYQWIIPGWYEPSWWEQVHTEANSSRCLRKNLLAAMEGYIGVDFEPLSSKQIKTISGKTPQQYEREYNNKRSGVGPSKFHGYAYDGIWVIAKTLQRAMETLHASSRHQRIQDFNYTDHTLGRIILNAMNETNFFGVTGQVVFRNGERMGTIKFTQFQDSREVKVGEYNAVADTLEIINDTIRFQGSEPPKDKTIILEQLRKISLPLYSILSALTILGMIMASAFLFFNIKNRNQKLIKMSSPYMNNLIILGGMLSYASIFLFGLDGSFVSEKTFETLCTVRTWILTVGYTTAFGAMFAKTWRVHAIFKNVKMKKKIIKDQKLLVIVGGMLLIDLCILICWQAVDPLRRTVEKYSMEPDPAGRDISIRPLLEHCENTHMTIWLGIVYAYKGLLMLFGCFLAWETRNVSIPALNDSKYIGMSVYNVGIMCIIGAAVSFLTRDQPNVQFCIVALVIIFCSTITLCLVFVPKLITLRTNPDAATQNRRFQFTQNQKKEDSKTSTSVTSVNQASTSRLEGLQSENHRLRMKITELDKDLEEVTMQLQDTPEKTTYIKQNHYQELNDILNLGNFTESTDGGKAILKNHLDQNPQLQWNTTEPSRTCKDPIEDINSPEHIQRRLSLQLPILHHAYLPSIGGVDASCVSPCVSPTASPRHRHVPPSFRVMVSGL
row,SMILES,GABAB receptor agonist or partial agonist activity
1,COc1cncc(-c2cc(C(CN)CC(=O)O)ccc2Cl)c1.Cl (stereo not shown) [4-amino-3-[4-chloro-3-(5-methoxy(3-pyridyl))phenyl]butanoic acid hydrochloride],agonist or partial agonist activity
2,Cl.N#Cc1cccc(-c2cc(Cl)ccc2[C@H](CN)CC(=O)O)c1 [(3R)-4-amino-3-[4-chloro-2-(3-cyanophenyl)phenyl]butanoic acid hydrochloride],agonist or partial agonist activity
3,"Cl.NC[C@H](CC(=O)O)c1ccc(Cl)c(-c2ccc(Cl)c(Cl)c2)c1 [(3R)-4-amino-3-[4-chloro-3-(3,4-dichlorophenyl)phenyl]butanoic acid hydrochloride]",agonist or partial agonist activity
4,Cl.N#Cc1cc(Cl)cc(-c2cc([C@H](CN)CC(=O)O)ccc2Cl)c1 [(3R)-4-amino-3-[4-chloro-3-(5-chloro-3-cyanophenyl)phenyl]butanoic acid hydrochloride],agonist or partial agonist activity
5,CN(Cc1ccccc1)c1cc([C@H](CN)CC(=O)O)ccc1Cl.Cl [(3R)-4-amino-3-{4-chloro-3-[methylbenzylamino]phenyl}butanoic acid hydrochloride],agonist or partial agonist activity
6,Cl.N#Cc1ccccc1CNc1cc([C@H](CN)CC(=O)O)ccc1Cl [(3R)-4-amino-3-(4-chloro-3-{[(2-cyanophenyl)methyl]amino}phenyl)butanoic acid hydrochloride],agonist or partial agonist activity
7,Cl.NC[C@H](CC(=O)O)c1ccc(Cl)c(-c2ccc(O)c(Cl)c2)c1 [(3R)-4-amino-3-[4-chloro-3-(3-chloro-4-hydroxyphenyl)phenyl]butanoic acid hydrochloride],agonist or partial agonist activity
8,Cl.NC[C@H](CC(=O)O)c1ccc(Cl)c(NCc2cccc(F)c2)c1 [(3R)-4-amino-3-(4-chloro-3-{[(3-fluorophenyl)methyl]amino}phenyl)butanoic acid hydrochloride],agonist or partial agonist activity
9,Cl.NC[C@H](CC(=O)O)c1ccc(Cl)c(-c2cncc3ccccc23)c1 [(3R)-4-amino-3-(4-chloro-3-(4-isoquinolyl)phenyl)butanoic acid hydrochloride],agonist or partial agonist activity
10,"Cc1ncc(-c2cc([C@H](CN)CC(=O)O)ccc2Cl)cn1.Cl [Example 30, (3R)-4-Amino-3-[4-chloro-3-(2-methylpyrimidin-5-yl)phenyl]butanoic acid hydrochloride]",agonist or partial agonist activity
11,Cl.N#Cc1cccc(COc2cc([C@H](CN)CC(=O)O)ccc2Cl)c1 [(3R)-4-amino-3-{4-chloro-3-[(3-cyanophenyl)methoxy]phenyl}butanoic acid hydrochloride],agonist or partial agonist activity
12,Cl.NC[C@H](CC(=O)O)c1ccc(Cl)c(/C=C/c2ccccn2)c1 [3-[3-((1E)-2-(2-pyridyl)vinyl)-4-chlorophenyl](3R)-4-aminobutanoic acid hydrochloride],agonist or partial agonist activity
13,"CS(=O)(=O)c1cccc(-c2cc([C@H](CN)CC(=O)O)ccc2Cl)c1.Cl [Example 54, (3R)-4-Amino-3-{4-chloro-3-[3-(methylsulfonyl)phenyl]phenyl}butanoic acid hydrochloride]",agonist or partial agonist activity
14,Cl.NC[C@H](CC(=O)O)c1ccc(Cl)c(OCc2ccccn2)c1 [(3R)-4-amino-3-[4-chloro-3-(2-pyridylmethoxy)phenyl]butanoic acid hydrochloride],agonist or partial agonist activity
15,NC[C@H](CC(=O)O)c1ccc(Cl)c(NCc2cccnc2)c1 [(3R)-4-amino-3-{4-chloro-3-[(3-pyridylmethyl)amino]phenyl}butanoic acid],agonist or partial agonist activity
16,"Cl.NC[C@H](CC(=O)O)c1ccc(Cl)c(-c2ccc(Cl)cc2Cl)c1 [(3R)-4-amino-3-[4-chloro-3-(2,4-dichlorophenyl)phenyl]butanoic acid hydrochloride]",agonist or partial agonist activity

# Now from value to compound:
row,GABAB receptor agonist or partial agonist activity,SMILES
1,agonist or partial agonist activity,Cl.NC[C@@H](CC(=O)O)c1ccc(Cl)c(-c2cccc(C(=O)O)c2)c1 [3-{5-[(1S)-2-amino-1-(carboxymethyl)ethyl]-2-chlorophenyl}benzoic acid hydrochloride]
2,agonist or partial agonist activity,"Cl.NC[C@H](CC(=O)O)c1ccc(Cl)c(-c2ccc(C(=O)O)cc2Cl)c1 [Example 44, 4-{5-[(1R)-2-Amino-1-(carboxymethyl)ethyl]-2-chlorophenyl}-3-chlorobenzoic acid hydrochloride]"
3,agonist or partial agonist activity,Cl.NC[C@H](CC(=O)O)c1ccc(Cl)c(-c2ccccc2C(=O)O)c1 [2-{5-[(1R)-2-amino-1-(carboxymethyl)ethyl]-2-chlorophenyl}benzoic acid hydrochloride]
4,agonist or partial agonist activity,"Cl.NC[C@H](CC(=O)O)c1ccc(Cl)c(NCc2ccoc2)c1 [Example 64, (3R)-4-Amino-3-{4-chloro-3-[(3-furylmethyl)amino]phenyl}butanoic acid hydrochloride]"
5,agonist or partial agonist activity,Cl.NC[C@H](CC(=O)O)c1ccc(Cl)c(CCc2ccccn2)c1 [(3R)-4-amino-3-[4-chloro-3-(2-(2-pyridyl)ethyl)phenyl]butanoic acid hydrochloride]
6,agonist or partial agonist activity,Cl.NC[C@H](CC(=O)O)c1ccc(Cl)c(OCc2ccccc2)c1 [(3R)-4-amino-3-[4-chloro-3-(phenylmethoxy)phenyl]butanoic acid hydrochloride]
7,agonist or partial agonist activity,"Cl.NC[C@H](CC(=O)O)c1ccc(Cl)c(-c2cncc(C(=O)O)c2)c1 [Example 48, 5-{5-[(1R)-2-Amino-1-(carboxymethyl)ethyl]-2-chlorophenyl}pyridine-3-carboxylic acid hydrochloride]"
8,agonist or partial agonist activity,NC[C@H](CC(=O)O)c1ccc(Cl)c(NC(=O)c2cccc(F)c2)c1 [(3R)-4-amino-3-{4-chloro-3-[(3-fluorophenyl)carbonylamino]phenyl}butanoic acid]
9,agonist or partial agonist activity,Cl.NC[C@H](CC(=O)O)c1ccc(Cl)c(-c2ccncc2)c1 [(3R)-4-amino-3-(4-chloro-3-(4-pyridyl)phenyl)butanoic acid hydrochloride]
10,agonist or partial agonist activity,NC[C@H](CC(=O)O)c1ccc(Cl)c(NC(=O)c2ccccn2)c1 [(3R)-4-amino-3-[4-chloro-3-(2-pyridylcarbonylamino)phenyl]butanoic acid]
11,agonist or partial agonist activity,NC[C@H](CC(=O)O)c1ccc(Cl)c(CCCC(=O)O)c1 [4-{5-[(1R)-2-amino-1-(carboxymethyl)ethyl]-2-chlorophenyl}butanoic acid]
12,agonist or partial agonist activity,Cc1ccc(C(=O)O)cc1-c1cc([C@H](CN)CC(=O)O)ccc1Cl.Cl [3-{5-[(1R)-2-amino-1-(carboxymethyl)ethyl]-2-chlorophenyl}-4-methylbenzoic acid hydrochloride]
